In data set [1] the test system is zebrafish embryos (wild-type strain OBI/WIK). The data set can be described thus: Morphological features and heart rate by automated imaging (VAST/FishInspector) at 96 hpf. It counts as in vivo, zebrafish (D. rerio). The note with it: embryos exposed beginning at 3 hpf; not observed when exposure started at 24 hpf. On the procedure: Automated imaging of zebrafish developmental phenotypes was conducted with the VAST BioImager (Union Biometrica, Gees, Belgium (Pardo-Martin et al. [2010]; Pulak [2016])) equipped with a large particle sampler (LP sampler, Union Biometrica). Lateral and dorsoventral images were obtained at 10 µm resolution at 96 hpf. Prior to imaging, all embryos were anesthetized by adding 20 µl tricaine solution ([…] tricaine, TRIS 26 mM, pH 7.5 ± 0.1) to each well of the microplate. Images were processed with an amended version (1.70, available via https://codebase.helmholtz.cloud/ufz/tb3-cite/biotox/FishInspector) of the FishInspector imaging software (Teixidó et al. [2019]). The FishInspector software allows to automatically annotate morphological features including body contour, eye, lower mouth tip, pericard, otoliths, notochord, swimbladder, and yolk and to calculate diverse metrics such as feature length, size, curvature indices, or angle between feature-connecting lines. In contrast to the previously published version, FishInspector 1.70 detects morphological features based on a deep learning approach using the Matlab Neural Network Toolbox and Matlab Image Processing Toolbox (Mathworks, Natick, […]). In addition, metric calculation was included into the software, and meta information such as test compound, exposure window or test concentration was associated to each image using a microplate layout file. To facilitate training of the models, two additional programs were generated in Matlab including FishTrainer 0.9 (for training of semantic segmentation models of structural features) and FishClassificator 0.9 (for training of position classes to be used in automated flipping of images) available via same repository as FishInspector software. For image training, image size was adjusted to 450 × 300 pixel to reduce computing time. This resolution was sufficient to detect the selected features (data not shown). For training of the deep learning models, approximately 3000 previously annotated images (Teixidó et al. [2022]) were used. The automated annotations were corrected by the user in the event that they were not adequately detecting visible structures. User-bias was avoided by a blinded assessment of images.
FishInspector provided a JSON file corresponding to each image file containing the coordinates of all features and the applied smoothing factor. All images and videos used for this publication can be found at the BioImage Archive S-BIAD954 (https://www.ebi.ac.uk/biostudies/bioimages/studies/S-BIAD954). For each image, a csv file was generated containing calculated metrics. The software automatically provides a summary table containing metrics r of individual embryos. […] The analyzed file includes endpoint names based on the FishInspector software. […]

The nature of data set [2]: Lethality of zebrafish embryos at 96 hpf. The note with it: OBI/WIK wild-type, zebrafish, in vivo, other: immersion of embryos in exposure media, ± 95% confidence intervals. It counts as in vivo, zebrafish (D. rerio). How it is done: Fertilized and normally developed embryos were selected according to Kimmel et al. ([1995]) with a dissection microscope (Olympus SZx7-ILLT) at 1 hpf. Depending on experiment, exposure was started within 2–3 h post-fertilization (16–128 cell stages) or at 24 hpf. Exposure was conducted in rectangular 96-well microplates (Clear Polystyrene, flat bottom, Uniplate, Whatman, GE Healthcare) covered by a lid with a test volume of 400 µL of exposure media. For each replicate one embryo per well and 16 wells per concentration were assessed. Experiments were performed with at least two replicates on independent days and breeding.
Concentration–response curves were fitted for lethality, heart rate, morphological features as previously described (Teixidó et al. [2019], [2022]). The assessment of lethality and morphological features was based on the percentage of embryos affected. Therefore, morphological endpoints were dichotomized, i.e. feature metrics were converted to the percentage of embryos deviating from controls. An embryo was considered to deviate when it was outside 1.5-fold of the standard deviation range of the mean of the control group. The control mean was determined by pooling control embryos across all experiments (n = 160) (available at git.ufz.de). For heart rate and angiogenesis (number of ISVs) the analysis was based on normalized values, i.e. for each experiment the values of the treatment were divided by the control value. The experiments were designed to calculate effect concentrations based on modelled curve fits. Different concentrations were used in at least two independent replicates, with means of each replicate based on the exposure of 16 different embryos per concentrations. Effect concentration were only modeled when three conditions were met. (1) The Tukey trend test based on the R package "tukeytrend" (Schaarschmidt et al. [2022]) was deriving a maximum p-value of 0.05. (2) The Akaike information criterion (AIC) for the log-logistic model was lower than the AIC for a linear model with slope 0 (lower p values for the letter would indicate that there is no trend in the data). (3) We calculated effect concentrations only if at least 30% of embryos for that endpoint were affected in at least one exposure concentration of (for normalized data) a reduction or increase by 30% was observed.

We go through three compounds from publication PMC10794345, “Analysis of vascular disruption in zebrafish embryos as an endpoint to predict developmental toxicity” (Archives of Toxicology, 2023).

One may read the LC50 as the concentration that kills 50% of the test population.

For the compound `CN(C)c1ccc(C=C2C(=O)Nc3ccccc32)cc1` [SU4312], the “Swim bladder inflation (in words)” value in data set [1] is “impaired swim bladder inflation”.
Turning to `Cc1cc(C)c(/C=C2\C(=O)Nc3ccccc32)[nH]1` [SU5416], the LC50 was 0.89 ± 0.42 µM in data set [2] (3–96 hpf exposure) and 1.93 ± 0.83 µM in data set [2] (24–96 hpf exposure). Also, the “Swim bladder inflation (in words)” value in data set [1] is recorded as “impaired swim bladder inflation”.
`CNC(=O)c1cc(Oc2ccc(NC(=O)Nc3ccc(Cl)c(C(F)(F)F)c3)cc2)ccn1` [Sorafenib] showed an LC50 in data set [2] (3–96 hpf exposure) of 2.8 ± 0.31 µM. Moreover, the “Swim bladder inflation (in words)” value in data set [1] is on record as “impaired swim bladder inflation”.
